Common to all, as to assay type: functional
For assay [1], the system named is Haemophilus influenzae. Nature of the assay: Antimicrobial activity against beta-lactamase negative ampicillin-susceptible Haemophilus influenzae by broth microdilution method. (Dilution methods test growth across graded concentrations, often in twofold steps.)
For assay [2], the system named is Haemophilus influenzae. Nature of the assay: Antimicrobial activity against beta-lactamase negative ampicillin-susceptible Haemophilus influenzae by E-test.
For assay [3], the system named is Haemophilus influenzae. Nature of the assay: Antimicrobial activity against beta-lactamase negative ampicillin-resistant Haemophilus influenzae by broth microdilution method.
Assay [4] concerns Haemophilus influenzae. Nature of the assay: Antimicrobial activity against beta-lactamase negative ampicillin-resistant Haemophilus influenzae by E-test.
Assay [5] has as its system Haemophilus influenzae. The experiment in a line: Antimicrobial activity against beta-lactamase positive ampicillin-resistant Haemophilus influenzae by E-test.
Assay [6] concerns Haemophilus influenzae. Nature of the assay: Antimicrobial activity against beta-lactamase positive amoxicillin/clavulanate-resistant Haemophilus influenzae by E-test.
Assay [7] deals with Haemophilus influenzae. The experiment in a line: Antimicrobial activity against Haemophilus influenzae expressing mutant ftsI gene.
Assay [8] relates to Haemophilus influenzae. Nature of the assay: Antimicrobial activity against beta-lactamase positive ampicillin-resistant Haemophilus influenzae by broth microdilution method.
Assay [9] concerns Haemophilus influenzae. The experiment in a line: Antimicrobial activity against beta-lactamase positive amoxicillin/clavulanate-resistant Haemophilus influenzae by broth microdilution method.

SMILES strings stand for the structures. ≈ marks a conversion by molar mass, not a printed value. A value given as a limit tells only on which side of the number the result lay.

Regarding `CO/N=C(\C(=O)N[C@@H]1C(=O)N2C(C(=O)O)=C(CSc3nc(=O)c(O)nn3C)CS[C@H]12)c1csc(N)n1` [CEFTRIAXONE], the MIC with Haemophilus influenzae [1] is under 0.06 µg/mL; in the assay with Haemophilus influenzae [2], 0.008 µg/mL (≈ 0.0144 µM); against Haemophilus influenzae [3] it was 0.06 µg/mL (≈ 0.108 µM); against Haemophilus influenzae [4], 0.012 µg/mL (≈ 0.0216 µM); with Haemophilus influenzae [5] it was 0.008 µg/mL (≈ 0.0144 µM); in the assay on Haemophilus influenzae [6], 0.25 µg/mL.
In the assay with Haemophilus influenzae [7], `CO/N=C(\C(=O)N[C@@H]1C(=O)N2C(C(=O)O)=C(COC(N)=O)CS[C@H]12)c1ccco1` [CEFUROXIME] showed an MIC of 0.5 µg/mL (≈ 1.18 µM).
With `C[C@H]1COc2c(N3CCN(C)CC3)c(F)cc3c(=O)c(C(=O)O)cn1c23.C[C@H]1COc2c(N3CCN(C)CC3)c(F)cc3c(=O)c(C(=O)O)cn1c23.O` [LEVOFLOXACIN], the MIC against Haemophilus influenzae [1] is under 0.06 µg/mL; against Haemophilus influenzae [2], under 0.06 µg/mL; against Haemophilus influenzae [3] it was 1 µg/mL; against Haemophilus influenzae [4], under 0.016 µg/mL.
In the assay with Haemophilus influenzae [7], `C=CC1=C(C(=O)O)N2C(=O)[C@@H](NC(=O)/C(=N\OCC(=O)O)c3csc(N)n3)[C@H]2SC1` [CEFIXIME] came in with an MIC of 0.03 µg/mL (≈ 0.0662 µM).
`N[C@@H](C(=O)N[C@@H]1C(=O)N2C(C(=O)O)=C(Cl)CS[C@H]12)c1ccccc1` [CEFACLOR ANHYDROUS] had an MIC in the assay on Haemophilus influenzae [7] of 4 µg/mL (≈ 10.9 µM).
For `CC1(C)S[C@@H]2[C@H](NC(=O)[C@H](N)c3ccccc3)C(=O)N2[C@H]1C(=O)O` [AMPICILLIN], the MIC with Haemophilus influenzae [1] came to 0.25 µg/mL (≈ 0.715 µM); against Haemophilus influenzae [2], 0.25 µg/mL (≈ 0.715 µM); in the assay with Haemophilus influenzae [3] it was 1 µg/mL (≈ 2.86 µM); against Haemophilus influenzae [4], 1 µg/mL (≈ 2.86 µM); with Haemophilus influenzae [8] it was 32 µg/mL (≈ 91.6 µM); in the assay on Haemophilus influenzae [5], 4 µg/mL (≈ 11.4 µM). Besides, the MIC in the assay on Haemophilus influenzae [9] and in the assay with Haemophilus influenzae [6] was 256 µg/mL each time.
Take `C[C@@H](O)[C@H]1C(=O)N2C(C(=O)O)=C(S[C@@H]3CN[C@H](C(=O)N(C)C)C3)[C@H](C)[C@H]12` [MEROPENEM]: the MIC against Haemophilus influenzae [1] was under 0.06 µg/mL; in the assay on Haemophilus influenzae [2] it was 0.064 µg/mL (≈ 0.167 µM); in the assay on Haemophilus influenzae [4] it was 0.125 µg/mL (≈ 0.326 µM); with Haemophilus influenzae [5] it was 0.064 µg/mL (≈ 0.167 µM); in the assay on Haemophilus influenzae [6], 0.125 µg/mL.
